# According to publication PMC12040169 (PLOS Biology, 2025):
# Test: in vitro
# Settings: human, hela cells, % viability
row,SMILES,"viability at 28.5 h, 10 µM [%]"
1,O=C(NC1CCCCC1)c1cc(S(=O)(=O)N2CCOCC2)ccc1Cl [CBK261662],96
2,O=[N+]([O-])c1ccc2c(c1)nnn2CN1CCCCC1 [CBK261663],90.4
3,Cc1ccc(S(=O)(=O)c2ccc(C)c(S(N)(=O)=O)c2)cc1S(N)(=O)=O [CBK261664],83.6
4,COc1ccc(/C=C/C(=O)c2ccc(OC)cc2OC)c(OC)c1 [CBK261666],87.3
5,O=C(N/N=C\c1cccs1)c1n[nH]c2c1CCCC2 [CBK261667],110
6,Cc1ccc(S(=O)(=O)c2ccc(C)c(S(=O)(=O)N3CCOCC3)c2)cc1S(=O)(=O)N1CCOCC1 [CBK261677],94.1
7,O=[N+]([O-])c1ccccc1N/N=C/c1c[nH]c2ccccc12 [CBK261679],89.6
8,O=C(CN1CCN(C(c2ccccc2)c2ccccc2)CC1)CN1C(=O)c2ccccc2C1=O [CBK261682],97.3
9,Cn1c2c(c(=O)[nH]c1=O)C1(O)C(=O)c3ccccc3C1(O)N2 (centres unmarked) [CBK261683],105
10,CC(C)C(Nc1nc2ncn(Cc3ccccc3)c2c(=O)[nH]1)C(=O)O (centres unmarked) [CBK261685],91.2
11,CC1(C)CC(=O)C(=CNCCCn2ccnc2)C(=O)C1 [CBK261686],91.3
12,O=C(N/N=C/c1cccnc1)c1cccc(F)c1 [CBK261689],101
13,COc1cc(C(c2c(C)n(C)n(-c3ccccc3)c2=O)c2c(C)n(C)n(-c3ccccc3)c2=O)ccc1O [CBK261690],110
14,CC(=O)Nc1ccc(S(=O)(=O)NNC(=O)c2cccc(Cl)c2)cc1 [CBK261694],89.4
15,O=C(O)C1CCCCC1C(=O)NCc1cccnc1 (centres unmarked) [CBK261695],91.7
16,O=C(N/N=C/c1ccccc1Cl)c1ccc(C(=O)N/N=C/c2ccccc2Cl)cc1 [CBK261698],108
17,COc1ccc(CC(=O)NNC(=O)c2ccc(C(C)(C)C)cc2)cc1 [CBK261700],92.5
18,NC(=NOC(=O)c1cccc(Br)c1)c1ccccc1 [CBK261703],92.7
19,COc1cccc(C(=O)NNC(=O)c2ccc(F)cc2)c1 [CBK261705],106
20,O=C(NN=C1CCCCCCCCCCC1)c1cc2ccccc2cc1O [CBK261706],102
21,C/C(=N\Nc1cc(-c2ccccc2)nc(C)n1)c1ccc(O)cc1 [CBK261710],87.9
22,Fc1ccccc1/C=N/Nc1nccnc1Cl [CBK261711],87.8

row,SMILES,"viability at 28.5 h, 10 µM [%]"
1,Cc1cc(NO)nc(-c2ccc(Br)cc2)n1 [CBK261713],97.6
2,[O-][n+]1c2c([n+]([O-])c3c1CCCC3)CCCC2 [CBK261714],99.5
3,Oc1ccc(C2N(O)C3CCCCC3N2O)cc1 (centres unmarked) [CBK261715],92.8
4,Cc1c(Cl)c([N+](=O)[O-])nn1CC(=O)N1CCN(Cc2ccccc2)CC1 [CBK261720],89.8
5,COc1ccc(-c2cc(-c3ccccc3)nc(N/N=C/c3ccc(O)c(C)c3O)n2)cc1 [CBK261721],101
6,O=[N+]([O-])c1cccc(/C=N/Nc2nc(-c3ccccc3)cc(-c3ccccc3O)n2)c1 [CBK261722],95.8
7,NS(=O)(=O)c1ccc(Nc2ncccc2[N+](=O)[O-])cc1 [CBK261724],91.6
8,COc1ccc2c3c([nH]c2c1)C(C)N(CCC(=O)NN)CC3 (centres unmarked) [CBK261726],93.2
9,Cc1nc([N+](=O)[O-])c(SCC(O)CN2CCCCC2)[nH]1 (centres unmarked) [CBK261727],88.7
10,CN(C)CCN(C)Cc1ccc([N+](=O)[O-])cc1 [CBK261728],110
11,CC1CCN(S(=O)(=O)c2cccc(S(=O)(=O)c3cccc(S(=O)(=O)N4CCC(C)CC4)c3)c2)CC1 [CBK261731],90
12,O=C(O)Cn1c2ccccc2c2cc([N+](=O)[O-])ccc21 [CBK261732],82.6
13,Cc1ccc(S(=O)(=O)N2CCOCC2)cc1S(=O)(=O)N1CCOCC1 [CBK261733],90.8
14,Cc1cc(C23CC4CC(CC(C(=O)O)(C4)C2)C3)c(C)cc1C12CC3CC(CC(C(=O)O)(C3)C1)C2 [CBK261734],112
15,O=C(NC(=O)c1ccc2ccccc2c1)Nc1ccc(Br)cc1 [CBK261735],107
16,O=C(Nc1cccc(O)c1)c1ccc(Br)c(S(=O)(=O)N2CCCCC2)c1 [CBK261736],91.9
17,O=C(CSc1nc2ccccc2[nH]1)c1ccc2ccccc2c1 [CBK261739],104
18,Cc1ccc(S(=O)(=O)c2ccc(C)c(S(=O)(=O)N3CCC(C)CC3)c2)cc1S(=O)(=O)N1CCC(C)CC1 [CBK261743],95.8
19,O=C(CSc1nc(O)cc(=O)n1-c1ccccc1)c1ccccc1 [CBK261745],103
20,CC1(C)Cc2c(ccc3ccccc23)C(CCN2CCCCC2)=N1 [CBK261746],116
21,CC1CCCC(C)N1CC(O)COc1ccc(/N=C/c2ccccc2O)cc1 (centres unmarked) [CBK261748],89.6
22,CC(C)(C)c1cc(CN2CCN(CCO)CC2)cc(C(C)(C)C)c1O [CBK261753],95.4
